Measurements from patent US7125679B2, “Methods to screen peptide libraries using minicell display” (Children's Medical Center Corporation, priority 2001, dated 2006).
Blank lines part the entries; values can stand above or below the substance they belong to.

Experiments:
alpha4 integrin = target: T1, alpha4 integrin (Homo sapiens, UniProt P13612); assay: alpha4 integrin binding
T1 sequence (P13612 34-1032): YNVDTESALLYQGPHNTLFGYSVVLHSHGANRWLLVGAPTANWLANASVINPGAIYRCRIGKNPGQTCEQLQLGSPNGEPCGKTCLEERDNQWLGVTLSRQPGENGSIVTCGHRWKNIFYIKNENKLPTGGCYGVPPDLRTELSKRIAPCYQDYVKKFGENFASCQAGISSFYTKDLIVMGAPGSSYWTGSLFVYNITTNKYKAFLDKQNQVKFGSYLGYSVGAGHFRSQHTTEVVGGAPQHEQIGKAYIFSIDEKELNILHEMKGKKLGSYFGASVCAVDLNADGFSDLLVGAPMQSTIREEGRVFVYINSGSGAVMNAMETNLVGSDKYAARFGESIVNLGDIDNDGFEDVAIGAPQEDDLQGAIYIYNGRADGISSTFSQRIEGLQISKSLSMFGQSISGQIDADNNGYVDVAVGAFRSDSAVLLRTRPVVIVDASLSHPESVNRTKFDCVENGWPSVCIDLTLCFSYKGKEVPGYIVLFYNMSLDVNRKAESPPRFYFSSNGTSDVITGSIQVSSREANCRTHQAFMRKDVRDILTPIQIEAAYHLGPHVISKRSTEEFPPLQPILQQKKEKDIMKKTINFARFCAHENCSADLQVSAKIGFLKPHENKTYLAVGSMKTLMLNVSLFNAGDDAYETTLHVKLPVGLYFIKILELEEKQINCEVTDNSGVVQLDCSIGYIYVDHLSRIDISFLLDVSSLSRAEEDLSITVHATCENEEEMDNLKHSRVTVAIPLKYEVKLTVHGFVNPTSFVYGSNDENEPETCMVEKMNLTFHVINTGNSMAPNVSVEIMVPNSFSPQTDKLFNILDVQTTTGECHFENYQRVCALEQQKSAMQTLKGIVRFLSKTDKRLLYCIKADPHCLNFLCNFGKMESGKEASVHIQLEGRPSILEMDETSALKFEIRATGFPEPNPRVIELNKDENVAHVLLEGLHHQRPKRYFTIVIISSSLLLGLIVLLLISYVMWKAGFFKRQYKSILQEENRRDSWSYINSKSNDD

angiogenesis = assay: Anti-angiogenic activity
cell entry of peptides = assay: Cell entry of peptides; format: cell-based
tumor cells [1] = assay: Apoptosis of tumor cells; format: cell-based
Source text: Many cells may undergo programmed cell death which is a genetically mediated form of self destruction. This phenomenon is commonly referred to in the art as apoptosis. Frequently, apoptotic cells may be recognized by changes in their biochemical, morphological and molecular features. Morphological changes include, but are not limited to, cell shape change, cell shrinkage, cell detachment, apoptotic bodies, nuclear fragmentation, nuclear envelope changes and loss of cell surface structures. Biochemical changes may include proteolysis, protein cross linking, DNA denaturation, cell dehydration, intranucleosomal cleavage and a rise in free calcium ions. Such characteristics are easily identifiable by methods well established in the art. Peptides isolated by the disclosed mini-cell display method are tested for their effects on such physiological and biochemical processes.

β3 = target: T2, β3 (Homo sapiens, UniProt P05106); assay: β3 attachment; format: cell-based
T2 sequence (P05106 27-788): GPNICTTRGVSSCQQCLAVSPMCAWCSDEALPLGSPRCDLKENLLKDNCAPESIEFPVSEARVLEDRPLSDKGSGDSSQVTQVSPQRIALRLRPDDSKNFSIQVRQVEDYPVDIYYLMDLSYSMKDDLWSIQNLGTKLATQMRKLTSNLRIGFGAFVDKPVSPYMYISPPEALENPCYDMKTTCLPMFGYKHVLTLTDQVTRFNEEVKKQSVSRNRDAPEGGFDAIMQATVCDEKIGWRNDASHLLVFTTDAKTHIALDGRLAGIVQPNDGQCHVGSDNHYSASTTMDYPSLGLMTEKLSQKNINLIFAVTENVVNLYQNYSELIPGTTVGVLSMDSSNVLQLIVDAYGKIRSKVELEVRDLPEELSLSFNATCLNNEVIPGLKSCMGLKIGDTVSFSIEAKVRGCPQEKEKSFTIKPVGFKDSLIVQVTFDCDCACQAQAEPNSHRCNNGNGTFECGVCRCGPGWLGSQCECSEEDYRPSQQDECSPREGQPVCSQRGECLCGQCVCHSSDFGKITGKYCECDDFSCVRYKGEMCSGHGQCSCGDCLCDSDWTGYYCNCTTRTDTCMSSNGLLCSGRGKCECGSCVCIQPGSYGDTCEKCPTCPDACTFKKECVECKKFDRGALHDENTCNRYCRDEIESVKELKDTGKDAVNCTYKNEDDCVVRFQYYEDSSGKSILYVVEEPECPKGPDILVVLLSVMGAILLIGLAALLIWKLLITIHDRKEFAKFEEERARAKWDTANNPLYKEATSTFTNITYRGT

melanoma cell = assay: Melanoma cell attachment; format: cell-based
collagenase = assay: Collagenase induction; format: cell-based
Fibronectin receptor = Fibronectin receptor (Homo sapiens, UniProt P05556+P08648); assay: Fibronectin receptor binding
Fibronectin receptor, sequence (P08648 42-894 limits assumed): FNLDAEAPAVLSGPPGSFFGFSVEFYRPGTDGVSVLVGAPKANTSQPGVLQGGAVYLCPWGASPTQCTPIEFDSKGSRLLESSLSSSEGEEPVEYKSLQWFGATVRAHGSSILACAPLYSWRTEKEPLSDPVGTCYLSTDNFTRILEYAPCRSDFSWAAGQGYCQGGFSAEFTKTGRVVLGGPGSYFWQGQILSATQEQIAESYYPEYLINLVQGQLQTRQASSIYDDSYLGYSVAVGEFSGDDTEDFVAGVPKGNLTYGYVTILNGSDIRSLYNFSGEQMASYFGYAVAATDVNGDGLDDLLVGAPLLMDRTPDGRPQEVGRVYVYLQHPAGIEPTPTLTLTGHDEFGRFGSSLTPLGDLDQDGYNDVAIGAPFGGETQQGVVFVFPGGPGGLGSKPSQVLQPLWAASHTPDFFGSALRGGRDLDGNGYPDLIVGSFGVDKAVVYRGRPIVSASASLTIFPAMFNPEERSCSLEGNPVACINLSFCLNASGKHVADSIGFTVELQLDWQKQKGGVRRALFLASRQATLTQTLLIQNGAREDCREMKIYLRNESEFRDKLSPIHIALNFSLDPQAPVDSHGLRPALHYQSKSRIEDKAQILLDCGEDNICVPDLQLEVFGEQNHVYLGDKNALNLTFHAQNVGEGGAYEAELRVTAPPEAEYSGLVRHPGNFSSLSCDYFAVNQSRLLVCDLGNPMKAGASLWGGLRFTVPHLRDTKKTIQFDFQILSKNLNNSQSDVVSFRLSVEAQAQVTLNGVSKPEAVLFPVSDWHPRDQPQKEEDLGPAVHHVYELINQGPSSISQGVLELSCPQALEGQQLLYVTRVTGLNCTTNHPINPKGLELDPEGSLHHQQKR
Fibronectin receptor, sequence (P08648 895-1049 limits assumed): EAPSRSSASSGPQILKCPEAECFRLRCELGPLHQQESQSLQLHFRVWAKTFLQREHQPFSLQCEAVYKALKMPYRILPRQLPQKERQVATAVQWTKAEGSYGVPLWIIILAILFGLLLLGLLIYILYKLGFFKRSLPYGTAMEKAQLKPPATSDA
Fibronectin receptor, sequence (P05556 21-798): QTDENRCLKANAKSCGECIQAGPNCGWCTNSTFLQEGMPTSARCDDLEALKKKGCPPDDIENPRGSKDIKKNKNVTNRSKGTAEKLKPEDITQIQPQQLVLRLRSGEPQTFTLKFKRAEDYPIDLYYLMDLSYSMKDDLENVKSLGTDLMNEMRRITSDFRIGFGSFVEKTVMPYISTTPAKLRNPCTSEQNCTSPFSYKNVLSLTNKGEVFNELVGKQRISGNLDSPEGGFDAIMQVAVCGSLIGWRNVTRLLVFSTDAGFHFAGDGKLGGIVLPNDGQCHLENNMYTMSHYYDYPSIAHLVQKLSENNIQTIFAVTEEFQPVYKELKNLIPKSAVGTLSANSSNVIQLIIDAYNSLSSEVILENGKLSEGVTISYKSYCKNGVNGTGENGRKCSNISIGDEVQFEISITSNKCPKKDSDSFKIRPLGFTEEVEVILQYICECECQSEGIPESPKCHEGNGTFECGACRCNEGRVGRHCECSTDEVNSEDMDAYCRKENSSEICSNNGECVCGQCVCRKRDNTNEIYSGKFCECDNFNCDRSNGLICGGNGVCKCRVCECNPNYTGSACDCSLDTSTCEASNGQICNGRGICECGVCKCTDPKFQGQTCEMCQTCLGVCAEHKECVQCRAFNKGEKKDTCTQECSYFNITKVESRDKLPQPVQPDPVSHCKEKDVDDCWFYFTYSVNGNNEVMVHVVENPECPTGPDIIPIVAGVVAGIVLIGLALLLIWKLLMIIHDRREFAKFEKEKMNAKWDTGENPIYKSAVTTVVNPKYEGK

tumor cells [2] = assay: Homotypic aggregation of tumor cells; format: cell-based
[3] = test system: neutrophils, endothelium, fibrosarcomas melanoma; assay: Attachment of neutrophils, endothelium, fibrosarcomas, melanoma; format: cell-based
cell-cell adhesion = assay: Cell-cell adhesion; format: cell-based
fibroblast = assay: Fibroblast attachment; format: cell-based
Endothelial cell = Endothelial cell attachment; format: cell-based
alphavbetax = assay: Cell attachment, alphavbetax specific; format: cell-based
β integrin = β integrin binding

- FUNCTIONAL ACTIVITY: Inhibits alpha4 integrin binding (alpha4 integrin): Inhibits alpha4 integrin
Substance: AADVESPS (Inhibits alpha 4 integrin binding.)

Substance: ATWLPPR (Anti-angiogenic.)
- FUNCTIONAL ACTIVITY: Anti-angiogenic (angiogenesis): Anti-angiogenic

Substance: CVVVLVL (Promotes cell entry of peptides.)
- FUNCTIONAL ACTIVITY: Promotes cell entry of peptides (cell entry of peptides): Promotes cell entry of peptides

Substance: DGGRGDSLGWYRRGRGGARRSKAKKAAAKNNQKSEPLIGRKKT (Apoptotic to tumor cells.)
- FUNCTIONAL ACTIVITY: Apoptotic to tumor cells (tumor cells [1]): Apoptotic to tumor cells

- FUNCTIONAL ACTIVITY: β3 attachment (β3): β3 attachment
Substance: DKKELAKFQAERSAAS (beta 3 attachment.)

Substance: DRYLKFRPV (Inhibits melanoma cell attachment.)
- FUNCTIONAL ACTIVITY: Inhibits melanoma cell attachment (melanoma cell): Inhibits melanoma cell

- FUNCTIONAL ACTIVITY: Inhibits heparin binding (Heparin binding): Inhibits heparin binding
Substance: DSVAYGLKSK (Inhibitor of heparin binding.)

- FUNCTIONAL ACTIVITY: Inhibits heparin binding (Heparin binding): Inhibits heparin binding
Substance: DSVAYGLKSRSK (Inhibitor of heparin binding.)

- FUNCTIONAL ACTIVITY: Inhibits heparin binding (Heparin binding): Inhibits heparin binding
Substance: DSVVYGLRSK (Inhibitor of heparin binding.)

- FUNCTIONAL ACTIVITY: Inhibits alpha4 integrin binding (alpha4 integrin): Inhibits alpha4 integrin
Substance: EPEESDVGGAADYP (Inhibits alpha 4 integrin binding.)

Substance: GRGDNPS (Fibronectin receptor binding collagenase induction.)
- FUNCTIONAL ACTIVITY: collagenase induction (collagenase): collagenase induction
- FUNCTIONAL ACTIVITY: Fibronectin receptor binding (Fibronectin receptor): Fibronectin receptor binding

- FUNCTIONAL ACTIVITY: β3 attachment (β3): β3 attachment
Substance: HDRKEFAKFEEEERARA (beta 3 attachment.)

- FUNCTIONAL ACTIVITY: β3 attachment (β3): β3 attachment
Substance: HDRKEVAKFEAERSKA (beta 3 attachment.)

- FUNCTIONAL ACTIVITY: β3 attachment (β3): β3 attachment
Substance: HDRREFAKFQSERSRA (beta 3 attachment.)

Substance: HGRFILPWWYAFSPS (Inhibits homotypic aggregation of tumor cells.)
- FUNCTIONAL ACTIVITY: Inhibit homotypic aggregation of tumor cells (tumor cells [2]): Inhibit homotypic aggregation

Substance: HKFVHWKKPVLPSQNNQ (Inhibits melanoma cell attachment.)
- FUNCTIONAL ACTIVITY: Inhibits melanoma cell attachment (melanoma cell): Inhibits melanoma cell

Substance: KGMNYTVR (Inhibits neutrophils, endothelium, fibro- sarcomas, melanoma attachment.)
- FUNCTIONAL ACTIVITY: Inhibits, neutrophils, endothelium, fibrosarcomas melanoma attachment [3]: Inhibits, neutrophils,

Substance: KKAKKSRRS (Anti-adhesion (cell-cell).)
- FUNCTIONAL ACTIVITY: Anti-adhesion (cell-cell) (cell-cell adhesion): Anti-adhesion (cell-cell)

Substance: KKGKKSKRS (Anti-adhesion (cell-cell).)
- FUNCTIONAL ACTIVITY: Anti-adhesion (cell-cell) (cell-cell adhesion): Anti-adhesion (cell-cell)

Substance: KRSR: bioactive peptide isolated by minicell display (Apoptotic to tumor cells.)
- FUNCTIONAL ACTIVITY: Apoptotic to tumor cells (tumor cells [1]): Apoptotic to tumor cells

- FUNCTIONAL ACTIVITY: Inhibits alpha4 integrin binding (alpha4 integrin): Inhibits alpha4 integrin
Substance: LDSAS: bioactive peptide isolated by minicell display (Inhibits alpha 4 integrin binding.)

- FUNCTIONAL ACTIVITY: Inhibits alpha4 integrin binding (alpha4 integrin): Inhibits alpha4 integrin
Substance: LDSPPAALS (Inhibits alpha 4 integrin binding.)

Substance: LVPSSKGRGDYLAQSQP (Fibronectin receptor binding collagenase induction.)
- FUNCTIONAL ACTIVITY: collagenase induction (collagenase): collagenase induction
- FUNCTIONAL ACTIVITY: Fibronectin receptor binding (Fibronectin receptor): Fibronectin receptor binding

Substance: PNGRGESLAY (Inhibits fibroblast attachment, inhibits collagenase induction.)
- FUNCTIONAL ACTIVITY: Inhibits fibroblast attachment (fibroblast): Inhibits fibroblast attachment,
- FUNCTIONAL ACTIVITY: inhibits collagenase induction (collagenase): inhibits collagenase induction

- FUNCTIONAL ACTIVITY: Inhibits alpha4 integrin binding (alpha4 integrin): Inhibits alpha4 integrin
Substance: QESPSGTDLLVAGSSP (Inhibits alpha 4 integrin binding.)

- FUNCTIONAL ACTIVITY: β3 attachment (β3): β3 attachment
Substance: QSWKKQGSPSSPQRRSKGGRKP (beta 3 attachment.)

Substance: QVGLKPLV (Anti-angiogenic.)
- FUNCTIONAL ACTIVITY: Anti-angiogenic (angiogenesis): Anti-angiogenic

Substance: RRSRSSTGKKQKSSQSRKTA (Anti-adhesion (cell-cell))
- FUNCTIONAL ACTIVITY: Anti-adhesion (cell-cell) (cell-cell adhesion): Anti-adhesion (cell-cell)

Substance: SDQDNNGKGSHES (Endothelial cell attachment.)
- FUNCTIONAL ACTIVITY: Endothelial cell attachment (Endothelial cell): Endothelial cell attachment

Substance: SDQDQDGDGHQDS (Endothelial cell attachment.)
- FUNCTIONAL ACTIVITY: Endothelial cell attachment (Endothelial cell): Endothelial cell attachment

- FUNCTIONAL ACTIVITY: Inhibits alpha4 integrin binding (alpha4 integrin): Inhibits alpha4 integrin
Substance: SDV: bioactive peptide isolated by minicell display (Inhibits alpha 4 integrin binding.)

Substance: TPFIPTESANDGRGDSVAW (Cell attachment/ alpha v beta x specific.)
- FUNCTIONAL ACTIVITY: Cell attachment/alphavbetax specific (alphavbetax): Cell attachment/a1phavbetax

Substance: TPTVRGAAGSGNQN (Anti-angiogenic)
- FUNCTIONAL ACTIVITY: Anti-angiogenic (angiogenesis): Anti-angiogenic

- FUNCTIONAL ACTIVITY: β integrin binding (β integrin): β integrin binding
Substance: TPVVPTVDTYDGRGDSLAY (beta integrin binding.)

- FUNCTIONAL ACTIVITY: Inhibits alpha4 integrin binding (alpha4 integrin): Inhibits alpha4 integrin
Substance: WTGGDDSGSPSSPS (Inhibits alpha 4 integrin binding.)
